From paper PMC2901233 (Nuclear medicine and biology, 2010)
“And” between values parts separate entries of the source, which are not always exact repeats. Identical values can stand only once. “Also recorded” adds a separate entry of the source.

What was measured:
[1] = plasma protein binding by the ultrafiltration method; format: in vitro ADME, baboon (Papio anubis)
[2] = reversed phase HPLC analysis of components of plasma radioactivity; format: in vivo, baboon (Papio anubis)
[3] = format: in vivo, baboon (Papio anubis)
serotonin transporters = assay: SPECT binding potential; format: in vivo, baboon (Papio anubis)
5-HT transporter = details: cited from earlier work
dopamine transporter = details: cited from earlier work
[4] = 0.5 mg/kg IV at 8 h post-radiotracer, n=2
[5] = 3 min after injection, arterial plasma
[6] = 5 min after injection, arterial plasma
[7] = 10 min after injection, arterial plasma
[8] = 30 min after injection, arterial plasma
[9] = 60 min after injection, arterial plasma
[10] = 120 min after injection, arterial plasma
[11] = 180 min after injection, arterial plasma
[12] = 360 min after injection, arterial plasma
[13] = MRTM2 analysis, bolus only study, first animal
[14] = average of equilibrium scans prior to displacement, same animal as MRTM2

For `COC(=O)C(c1ccccc1)C1CCCCN1` (centres unmarked) [Methylphenidate, methylphenidate], the “Percent Displacement in [123I]p ZIENT (BPND), Basal Ganglia” value (serotonin transporter; [4]) was -4%, the “Percent Displacement in [123I]p ZIENT (BPND), Brainstem” value (serotonin transporter; [4]) was -11% and the “Percent Displacement in [123I]p ZIENT (BPND), Diencephalon” value (serotonin transporter; [4]) was -5%. For the same molecule, the “Percent Displacement in [123I]p ZIENT (BPND), Hippocampus” value (serotonin transporter; [4]) was -8%, the “Percent Displacement in [123I]p ZIENT (BPND), Temporal Cortex” value (serotonin transporter; [4]) was -1% and the “displacement of [123I]p ZIENT in all regions studied, in words” value (serotonin transporter; IV at 8 h post-radiotracer, fluoxetine 1.5, 2.5, citalopram 5, methylphenidate 0.5, nisoxetine 1 mg/kg) was “no significant changes”.
With `COC(=O)C1C2CCC(CC1c1ccc(/C=C\I)cc1)N2` (stereo not drawn) [[^123I]p ZIENT, 2β-carbomethoxy-3β-(4′-((Z)-2-iodoethenyl)phenyl)nortropane] the “protein bound in plasma” value ([1]; first of the two baboons) was 93.1± 0.3% and 93%, the “protein bound in plasma” value ([1]; second of the two baboons) was 89.8 ± 0.7% and 90% and the “Relative proportion of plasma radioactivity, Parent Compound” value (“Relative proportion … Parent Compound” below) ([2]; 1 min after injection, arterial plasma) was 69%. The “Relative proportion … Parent Compound” value [2, 5] was 69%, the “Relative proportion of plasma radioactivity, Polar Fraction (metabolite)” value [2, 5] was 5% and the “combined two polar metabolite fractions as percent of total plasma activity” value ([2]; 3 min post-injection) was 31%. The “Relative proportion … Parent Compound” value [2, 6] was 65%, the “Relative proportion of plasma radioactivity, Polar Fraction (metabolite)” value [2, 6] was 10% and the “Relative proportion … Parent Compound” value [2, 7] was 43%. The “Relative proportion of plasma radioactivity, Polar Fraction (metabolite)” value [2, 7] was 41%, the “Relative proportion … Parent Compound” value [2, 8] was 16% and the “Relative proportion of plasma radioactivity, Polar Fraction (metabolite)” value [2, 8] was 78%. For the same molecule, the “Relative proportion … Parent Compound” value [2, 9] was 10%, the “Relative proportion of plasma radioactivity, Polar Fraction (metabolite)” value [2, 9] was 87% and the “Relative proportion … Parent Compound” value [2, 10] was 5%. For the same molecule, the “Relative proportion of plasma radioactivity, Polar Fraction (metabolite)” value [2, 10] was 94%, the “Relative proportion … Parent Compound” value [2, 11] was 4% and the “Relative proportion of plasma radioactivity, Polar Fraction (metabolite)” value [2, 11] was 95%. The “combined two polar metabolite fractions as percent of total plasma activity” value ([2]; 180 min post-injection) was 96%, the “Relative proportion … Parent Compound” value [2, 12] was 3% and the “Relative proportion of plasma radioactivity, Polar Fraction (metabolite)” value [2, 12] was 96%. The “time of peak level of radioactivity in arterial plasma” value ([2]; after bolus injection) was 4 to 7 min, the “time of peak of the transient fraction” value ([2]; arterial plasma) was 3 to 5 min and the “unmetabolized parent as proportion of plasma radioactivity” value ([2]; at the time of peak level of radioactivity in arterial plasma (4-7 min)) was 69%. For the same molecule, the “lipophilic radiolabeled metabolites entering the brain” value ([2]; baboon arterial plasma, HPLC) was “no detection; also recorded: detected no radiometabolites that are capable of entering the brain”, the “transient fraction at its peak, proportion of plasma radioactivity” value ([2]; peak at 3-5 min) was 26% and the “time of peak whole brain uptake” value ([3]; bolus IV injection) was 74 min. For the same molecule, the “whole brain uptake, percent of injected dose” value ([3]; bolus IV injection, at peak (74 min)) was 2.3%, the “time at which equilibrium was established” value ([3]; bolus to constant infusion at a ratio of 9.0 h) was 4 to 8 h and the “change per hour at equilibrium” value ([3]; bolus to constant infusion, between 4-8 h) was under 5%. For the same molecule, the BPND basal ganglia (serotonin transporters; [13]) was 0.97, the BPND brainstem (serotonin transporters; [13]) was 1.34 and the BPND diencephalon (serotonin transporters; [13]) was 1.48. It also gave a BPND hippocampus (serotonin transporters; [13]) of 0.49, a BPND temporal cortex (serotonin transporters; [13]) of 0.39 and a BPND basal ganglia (serotonin transporters; [14]) of 0.81. For the same molecule, the BPND brainstem (serotonin transporters; [14]) was 1.34, the BPND diencephalon (serotonin transporters; [14]) was 1.04 and the BPND hippocampus (serotonin transporters; [14]) was 0.82. The BPND temporal cortex (serotonin transporters; [14]) was 0.22, the BPND basal ganglia (serotonin transporters; second animal) was 2.9 and the BPND brainstem (serotonin transporters; second animal) was 4.32. The BPND diencephalon (serotonin transporters; second animal) was 3.83, the BPND hippocampus (serotonin transporters; second animal) was 2.07 and the BPND temporal cortex (serotonin transporters; second animal) was 1.28. The SERT binding affinity (5-HT transporter) was about 0.05 nM and the “specificity for binding to the 5-HT transporter compared to the dopamine transporter” value (dopamine transporter) was 100 fold.
